In patent publication US20220409617A1, “Drug Formulations and Methods of Treatment for Metabolic Disorders” (The Regents of the University of California, priority 2019, published 2022):

Assays:
[1] = system: mouse embryonic fibroblasts (MEFs); assay: Ceramide-induced (C16:0 CER, C2-ceramide) mitochondrial fragmentation; type: cell-based
Method: (§1) 3T3-L1 cells were maintained in DMEM with 10% FBS and 1% penicillin-streptomycin until induced to differentiate. 3T3-L1 pre-adipocytes were differentiated as described in (M. P. Valley, et al., Anal. Biochem. 505: 43-50, 2016, the disclosure of which is incorporated herein by reference) with slight modifications. Briefly, pre-adipocytes were grown to confluence. After 2 d, cells were induced with maintenance media containing 500 μM IBMX (15879, Sigma-Aldrich, St. Louis, Mo.), 1 μM dexamethasone (D4902, Sigma-Aldrich), 5 μg/mL bovine insulin (10516, Sigma-Aldrich), and 5 μM troglitazone (50-115-0786, ApexBio). Media was changed every 2-3 d for 7 d. On day 7 post-induction, media was changed to maintenance media+5 μg/mL bovine insulin. On day 9 post-induction, media was changed to maintenance media. Mature adipocytes were used 12-14 d post-induction for all experiments. LSL-KrasG12D mouse embryonic fibroblasts (MEFs) with and without Cre-mediated deletion of the STOP cassette were obtained from David Tuveson (Cold Spring Harbor Laboratory, Cold Spring Harbor N.Y., USA) in 2000. p53^flox/flox MEFs were derived in house (2015) from C57BL/6 mice using standard techniques and immortalized by transient expression of Cre recombinase and deletion of p53. MEFs were cultured and maintained in DMEM with 10% FBS and 1% penicillin-streptomycin. A549 cells were cultured in DMEM with 10% FBS, 1% penicillin-streptomycin and 1% sodium pyruvate. Stock solution of palmitic acid (ACROS Organics, cat # AC129702500) was prepared at 100 mM in ethanol. Palmitate (250 μM) was conjugated to 1% (w/v) fatty-acid free bovine serum albumin (Sigma, A8806) in DMEM at 37° C. for 20 min. For all immunofluorescence assays, 8,000 MEFs were seeded into 8-chamber slides (Cellvis, cat # C8-1.5H-N) 12-16 h before treatment. Cells were pre-treated with sphingolipid-like compound 893 (5 μM in water), myriocin (10 μM in methanol), fumonisin-B1 (30 μM in DMSO), or celastrol (500 nM in DMSO) for 3 h followed by a 3 h treatment with BSA-conjugated palmitate mixture or BSA alone. Where cells were treated with C2-ceramide (50 μM in DMSO) or C16:0 ceramide (100 μM in ethanol) for 3 h, cells were pre-treated with sphingolipid-like compound 893 for 1-3 h as indicated, mdivi-1 (50 μM in DMSO) for 1 h or 24 h, M1 (5 μM in DMSO) for 24 h, mdivi-1 and M1 together for 24 h, leflunomide (50 μM in methanol) for 1 h or 24 h, or with P110 (1 μM in water) for 1 h or 12 h. LSL or KRAS^G12D MEFs were treated with sphingolipid-like compound 893 (5 μM) for 6 h prior to fixation.
MEFs were washed twice with PBS and fixed with 4% paraformaldehyde for 10 min at RT. Cells were permeabilized with 0.3% Triton X-100 in blocking buffer containing 10% fetal bovine serum for 20 min at 37° C. followed by overnight incubation with mouse anti-citrate synthase (sc-390693, Santa Cruz Biotechnology; dilution, 1:200) or rabbit-anti-DRP1 at 1:100 (#8570, Cell Signaling Technology) at 4° C. Cells were then washed twice with PBS and incubated with AlexaFluor 488 goat anti-mouse (A28175, Invitrogen) or AlexaFluor 594 donkey anti-rabbit (A32754, Invitrogen) secondary antibodies at RT followed by 5 min incubation with 1 μg/ml DAPI and 2 washes in PBS. For NADH autofluorescence studies, mice were gavaged with vehicle or 120 mg/kg sphingolipid-like compound 893 at ZT8.5 (4-10.5 h before sacrifice between ZT12.5 and ZT18). Post sacrifice, livers were excised, washed 3× with PBS, placed in DMEM supplemented with 10% FBS and 1% penicillin-streptomycin, and immediately imaged. NADH/NADPH autofluorescence was detected with 740 nm excitation and 450±50 nm detectors using a Mai Tai two-photon laser. Fluorescence microscopy was performed on a Zeiss LSM 780 confocal using a 63× oil objective with a […] numerical aperture (NA) or using a Nikon TE2000-S inverted epifluorescence microscope with a 100× oil objective (1.3 NA) and a Photometrics CoolSNAP ES2 monochrome CCD camera. […]

[2] = mouse, in vivo; cited from earlier work
A549 lung cancer cells = assay: KRAS-mediated mitochondrial fission in A549 cells; type: cell-based, human; conditions: A549, oncogenic KRAS; 893 5 μM 1 h, leflunomide 50 μM 24 h
Method: as §1, with “Where cells were treated with C2-ceramide (50 μM in DMSO) or C16:0 ceramide (100 μM in ethanol) for 3 h, cells were pre-treated with sphingolipid-like compound 893 for 1-3 h as indicated, mdivi-1 (50 μM in DMSO) for 1 h or 24 h, M1 (5 μM in DMSO) for 24 h, mdivi-1 and M1 together for 24 h, leflunomide (50 μM in methanol) for 1 h or 24 h, or with P110 (1 μM in water) for 1 h or 12 h. LSL or KRAS^G12D MEFs were treated with sphingolipid-like compound 893 (5 μM) for 6 h prior to fixation.” left out
MEFs were washed twice with PBS and fixed with 4% paraformaldehyde for 10 min at RT. […] NADH/NADPH autofluorescence was detected with 740 nm excitation and 450±50 nm detectors using a Mai Tai two-photon laser. Fluorescence microscopy was performed on a Zeiss LSM 780 confocal using a 63× oil objective with a […] numerical aperture (NA) or using a Nikon TE2000-S inverted epifluorescence microscope with a 100× oil objective (1.3 NA) and a Photometrics CoolSNAP ES2 monochrome CCD camera. […]

Cc1oncc1C(=O)Nc1ccc(C(F)(F)F)cc1 [leflunomide]
Protection from ceramide-induced mitochondrial fragmentation ([1]; MEFs, C16:0 CER 100 μM or C2-ceramide 50 μM 3 h, 893 5 μM, mdivi-1 50 μM, M1 5 μM, leflunomide 50 μM, P110 1 μM): blocked C16:0 ceramide-induced mitochondrial fragmentation after a 24 h, but not a 1 h, pre-incubation | Potency relative to compound 893 (less potent) ([1]; blocking ceramide-induced mitochondrial fragmentation in vitro): 10 fold | Food intake and body weight in obese mice [2]: failed to reduce food intake or body weight in obese mice | Reversal of mitochondrial fragmentation / tubularity in A549 cells (A549 lung cancer cells): did not reverse mitochondrial fragmentation in A549 lung cancer cells
